This note sets out measurements from PMC9925730, “Controlled sequential in situ self-assembly and disassembly of a fluorogenic cisplatin prodrug for cancer theranostics” (Nature Communications, 2023).

Molecules are shown by their SMILES. Several values for one entry are separate records, joined by “and”; a condition that tells them apart may be missing. Identical values can stand only once.

For data set [1], the system named is supercoiled pBR322 plasmid DNA. Put plainly: Ability to break DNA double strand (agarose gel electrophoresis). The settings on record: 100 μM, 37 °C, 16 h. It counts as biochemical.
Protocol: Evaluation of the ability to break DNA double strand
by different species of Pt compounds. (a) Agarose gel electrophoresis of supercoiled
pBR322 plasmid DNA (10 ng/μL) after incubating with indicated conditions.
represents the linear DNA marker ladder (500-12000 bp); Lane i: DNA; Lane ii: DNA
+ GSH (2 mM); Lane iii: DNA + CDDP (100 μM); Lane iv: DNA + CDDP (100 μM)
+ GSH (2 mM); Lane v: DNA + P-CyPt (100 μM); Lane vi: DNA + P-CyPt (100 μM)
+ GSH (2 mM), Lane vii: DNA +P-CyPt (100 μM) + ALP (500 U/L), Lane viii: DNA
+P-CyPt (100 μM) + ALP (500 U/L) +GSH (2 mM); (b) Agarose gel electrophoresis
of supercoiled pBR322 plasmid DNA (20 ng/μL) after incubating with varying
concentrations of P-CyPt (0, 1, 2, 5, 10, 20, 50 and 100 μM) respectively) plus ALP
(500 U/L), followed by incubation with GSH (2 mM) in Tris buffer at 37 °C for 16 h.
One representative experiment out of two is shown.
A short description of data set [2]: Urine and faeces analysis by HPLC (mCy-containing compounds). Type of data set: in vivo, mice.
For data set [3], the system named is HeLa cells. In words: ICP-OES analysis of Pt in HeLa cells (uptake). Type of data set: cell-based. The settings on record: Supplementary Table S1. Here is the method:
Supplementary Table 1. ICP-OES analysis of Pt in HeLa cells. a Pt drugs Pt element per cell Percentage of Pt element […]
a HeLa cells were untreated or pre-treated with Na3VO4 (10 mM) for 20 min and then incubated with indicated Pt drug (10 μM) for 1 h. Then, the cells were trypsinized, collected, and the cell numbers were counted and digested with trace metal concentrated HNO3 (65~70%) and HCl (36~38%). The amount of Pt element was determined by […]
b Pt per cell represents the average amount of Pt element in one HeLa cell, which was calculated by dividing the total amount of Pt element in cells by the cell number. c Percentage of Pt taken up by cells was calculated by dividing the total amount of Pt elements in cells by the amount of Pt drugs added. Values denote mean ± s.d. (n = 3 independent experiments). […]
The cell […]
lysates were separated according to a reported fragmentation procedure to obtained different cell fractions: pellet sample N (nuclei) was separated by 600 g for 10 min; pellet sample L (lysosomes and mitochondria) separated by 15000 g for 5 min; pellet sample M (plasma membrane) separated 100000g for 60 min and the remaining supernatant was soluble portion cytoplasm named as cell pellet C (cytosol) Pellets N, L, and M were all re-dispersed in 200 μL of D.I. water. Then, the solutions were collected and dropped on a carbon-coated copper grid, followed by freeze-drying respectively. The samples were then examined in a JEM-2800 Transmission Electron […]
Quantitative analysis of Pt in HeLa cells and different subcellular organelles. HeLa […]
cells were seeded in 10-cm dishes at a density of 4×10^6 cells/well and allowed to grow overnight. The cells were incubated with P-CyPt (10 μM), PtIVNPs (10 μM) and CDDP (10 μM) for 1 h, respectively. In P-CyPt + Na3VO4 group, HeLa cells were first incubated with Na3VO4 (10 mM) for 20 min, and then incubated with P-CyPt (10 μM) for another 60 min. After being washed with PBS for three times, the cells were trypsinized, centrifuged and counted. For Pt distribution analysis, the cells were treated with P-CyPt (10 μM) or CDDP (10 μM) for 1 h, and then washed with PBS for three times, followed by incubation with fresh medium for another 24 h. After that, cells were washed gently with 2 mL PBS once. The cells were trypsinized, centrifuged and counted. The cell lysates were separated according to a reported fragmentation procedure to obtained different cell fractions, including N (nuclei), M (plasma membrane), L (lysosomes and mitochondria) and C (cytosol). The Cells and different cell fractions were digested with concentrated HNO3 (65~70%) and HCl (36~38%) at 90 °C for 24 h. The solution was diluted to 5 mL 2% HNO3 and 5% HCl solution, and the concentration of Pt element was measured by ICP-OES, which was further applied to calculate the amount of Pt in cells and subcellular organelles.
Flow cytometry analysis of HeLa cell death. Approximately 2×10^5 cells/well HeLa cells in 2 mL DMEM medium were seeded onto 6-well plates and allowed to grow overnight. The medium was replaced with 1 mL of fresh medium containing P-CyPt (20 μM), PtIVNPs (20 μM) and CDDP (20 μM), respectively. After 2 h incubation, medium was removed and cells were washed with PBS for three times. Then, cells were incubated with fresh medium for another 48 h to induce different levels of apoptosis.
After gentle washing with PBS (×1), the cells were detached from the plates with trypsin (500 μL per well), and the cell pellets were collected after centrifugation at […] at 4 °C for 4 min. After washing with PBS, the pellets were re-suspended in 500 μL PBS buffer and stained with the annexin V-FITC/PI double staining apoptosis detection kit for flow cytometry. All assays were performed according to the manufacturer instructions, and the cell population was analyzed by annexin V-FITC and PI channels. The count number for each flow cytometry analysis was ~5000 to […]

[4] abbreviates: Time period 0-2 h, individual mice, matrix and injected agent not given.
The mark [5] stands for this setting: Time period 0-2 h, mean of 3 mice, matrix and injected agent not given.
Where [6] appears, read: Time period 2-4 h, individual mice.
Setting [7] is: Time period 2-4 h, mean of 3 mice.
[8] abbreviates: Time period 4-8 h, individual mice.
The mark [9] stands for this setting: Time period 4-8 h, mean of 3 mice.
Where [10] appears, read: Time period 8-12 h, mean of 3 mice.
The mark [11] stands for this setting: after i.v. preformed PtIVNPs, 2-4 h.
Setting [12] is: after i.v. preformed PtIVNPs, 4-8 h.
The mark [13] stands for this setting: after i.v. preformed PtIVNPs, 8-12 h.

Consider `[NH2][Pt]([NH2])([Cl])[Cl]` [CDDP, cisplatin], for which the “effect on supercoiled pBR322 DNA” value is listed as “prevent its binding with the DNA double strand” in data set [1] (plus GSH (2 mM)) and “cannot obviously relax or break” in data set [1] (without GSH).
Turning to `CC1(C)C(/C=C/C2=C3Oc4cc(O)c(Cl)cc4C=C3CCC2)=[N+](CCCNC(=O)[C@@H](Cc2ccccc2)NC(=O)[C@@H](Cc2ccccc2)NC(=O)CCC(=O)[O][Pt]([NH2])([NH2])([OH])([Cl])[Cl])c2ccccc21` [CyPt], the “Compound found in excreta (%), Supplementary Table S5” value in data set [2] (setting [4]) is 1.0169% and 1.15% and 0.9269%; in data set [2] (setting [5]) it was 1.03%; in data set [2] (setting [6]), 0.5615% and 0.6076% and 0.4976%; in data set [2] (setting [7]) it was 0.56%; in data set [2] (setting [8]), 0.2738% and 0.2968% and 0.2509%; in data set [2] (setting [9]), 0.27%. Also, the “Compound found in excreta (%), Supplementary Table S5” value in data set [2] (setting [10]) was found to be 0.00%. Besides, the “Compound found in excreta (%), Supplementary Table S6” value in data set [2] (setting [4]) is 0.0316% and 0.04969% and 0.02632%; in data set [2] (setting [5]), 0.0359%; in data set [2] (setting [6]), 0.965% and 1.15% and 0.7153%; in data set [2] (setting [7]), 0.94%; in data set [2] (setting [8]), 10.4273% and 10.6083% and 7.985%; in data set [2] (setting [9]), 9.67%. Further, in data set [2] (setting [10]), the “Compound found in excreta (%), Supplementary Table S6” value was found to be 0.76%. Moreover, the “Compound found in excreta (%), Supplementary Table S7” value in data set [2] (setting [4]) was 0%; in data set [2] (setting [5]), 0.00%; in data set [2] (setting [6]), 2.308% and 2.538% and 1.332%; in data set [2] (setting [7]), 2.06%; in data set [2] (setting [8]) it was 3.373% and 3.391% and 1.995%; in data set [2] (setting [9]) it was 2.92%. For the same compound, in data set [2] (setting [10]), the “Compound found in excreta (%), Supplementary Table S7” value was found to be 1.17%. For the same compound, the “Compound found in excreta (%), Supplementary Table S8” value in data set [2] (setting [4]) is 0.5086% and 0.616% and 0.02021%; in data set [2] (setting [5]), 0.38%; in data set [2] (setting [6]) it was 12.9072% and 11.8054% and 9.624%; in data set [2] (setting [7]), 11.45%; in data set [2] (setting [8]), 11.1798% and 12.4002% and 9.36%; in data set [2] (setting [9]), 10.98%. Besides, the “Compound found in excreta (%), Supplementary Table S8” value in data set [2] (Time period 8-12 h, individual mice) was 1.288% and 2.706% and 1.988%; in data set [2] (setting [10]), 1.99%. For the same compound, the “percentage excreted to the faeces (HPLC)” value is 0.94 ± 0.22% in data set [2] (after i.v. P-CyPt, 2-4 h); 9.67 ± 1.46% and ~ 9.7% in data set [2] (after i.v. P-CyPt, 4-8 h); 0.76 ± 0.14% in data set [2] (after i.v. P-CyPt, 8-12 h); 11.44 ± 1.67% in data set [2] (setting [11]); 10.98 ± 1.53% in data set [2] (setting [12]); 1.99 ± 0.71% in data set [2] (setting [13]). Further, the “percentage excreted to the urine (HPLC)” value in data set [2] (after i.v. P-CyPt, 2-4 h) was found to be 0.56 ± 0.055%; in data set [2] (after i.v. P-CyPt, 4-8 h), 0.27 ± 0.23%; in data set [2] (after i.v. P-CyPt, 8-12 h) it was 0%; in data set [2] (setting [11]), 2.06 ± 0.64%; in data set [2] (setting [12]), 2.92 ± 0.80%; in data set [2] (setting [13]), 1.16 ± 0.43%. Besides, the “Amount of Pt” value is 1.96 fmol/cell and 1.6407 fmol/cell and 1.595 fmol/cell in data set [3] (individual samples); 1.7317 fmol/cell in data set [3] (mean of 3 samples). Also, the “Total amount of Pt” value in data set [3] (individual samples) is 2.9% and 2.428% and 2.36%; in data set [3] (mean of 3 samples), 2.563%.
